Test results published in patent publication US8017602B2, “N-(2-(2-(5-hydroxy-3-oxo-3,4-dihydro-2H-benzo[b][1,4]oxazin-8-yl)ethylamino)ethyl)-3-(phenethoxy)propanamide derivatives, processes for their preparation, pharmaceutical compositions containing them and their use in therapy” (AstraZeneca AB, priority 2008, dated 2011).
Counter-ions that a name gives are not always drawn.

How the values were obtained:
[1] = target: T1, recombinant human α1D receptor (Homo sapiens, UniProt P25100); assay: Adrenergic α1D selectivity binding assay ([3H]-prazosin); details: inhibition of [3H]-prazosin binding, HEK293 membranes, read-out: α1 bind pIC50 (converted)
T1 construct: expressed in transfected cells; host or cells: HEK293
T1 sequence (P25100 1-572): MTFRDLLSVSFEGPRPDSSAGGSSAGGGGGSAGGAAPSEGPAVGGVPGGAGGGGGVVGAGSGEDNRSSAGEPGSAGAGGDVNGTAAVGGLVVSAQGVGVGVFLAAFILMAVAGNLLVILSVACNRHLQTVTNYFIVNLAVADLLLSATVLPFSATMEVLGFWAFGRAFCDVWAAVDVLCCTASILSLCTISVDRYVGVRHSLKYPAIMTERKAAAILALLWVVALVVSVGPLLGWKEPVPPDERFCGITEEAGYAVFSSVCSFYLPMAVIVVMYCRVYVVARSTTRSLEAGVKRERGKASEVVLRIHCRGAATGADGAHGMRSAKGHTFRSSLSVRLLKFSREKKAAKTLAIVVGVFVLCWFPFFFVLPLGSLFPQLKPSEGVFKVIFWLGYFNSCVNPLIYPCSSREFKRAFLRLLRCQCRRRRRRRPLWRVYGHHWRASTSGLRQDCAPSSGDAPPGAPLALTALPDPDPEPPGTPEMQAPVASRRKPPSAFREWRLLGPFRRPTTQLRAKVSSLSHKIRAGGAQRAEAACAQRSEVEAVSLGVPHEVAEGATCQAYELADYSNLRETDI
How it was run: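 HEK293 membranes expressing human α1D were incubated 2 h at room temperature with 0.3 nM [3H]-prazosin in HEPES/EDTA pH 7.4 buffer. Nonspecific binding was defined with 10 μM BMY7378. After filtration and scintillation counting, pIC50 was derived by four-parameter logistic fit.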

[2] = target: T2, recombinant human adrenergic beta 1 receptors (Homo sapiens, UniProt P08588); assay: Adrenergic β1 selectivity binding assay ([125I]-Iodocyanopindolol); details: inhibition of [125I]-Iodocyanopindolol binding, human β1 membranes; read-out: β1 bind p IC50 (converted)
T2 construct: purchased Euroscreen
T2 sequence (P08588 whole entry): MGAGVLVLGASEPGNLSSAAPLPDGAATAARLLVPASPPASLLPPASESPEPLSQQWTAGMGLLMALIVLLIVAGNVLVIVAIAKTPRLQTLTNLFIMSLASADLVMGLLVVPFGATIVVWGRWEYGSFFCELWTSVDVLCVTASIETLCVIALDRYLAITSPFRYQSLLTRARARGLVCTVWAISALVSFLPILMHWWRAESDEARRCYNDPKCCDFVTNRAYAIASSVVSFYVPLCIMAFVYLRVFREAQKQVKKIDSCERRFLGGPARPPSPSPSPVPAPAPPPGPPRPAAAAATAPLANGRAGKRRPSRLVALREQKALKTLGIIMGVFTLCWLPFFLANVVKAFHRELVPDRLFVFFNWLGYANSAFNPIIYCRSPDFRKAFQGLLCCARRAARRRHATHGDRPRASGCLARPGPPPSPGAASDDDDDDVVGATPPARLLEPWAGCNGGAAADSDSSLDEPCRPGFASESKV
How it was run: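 Membranes with recombinant human β1 receptors in HEPES/EDTA/NaCl/gelatin buffer, pH 7.4, competed against [125I]-iodocyanopindolol (0.036 nM final), 2 h at room temperature; 10 μM propranolol defined non-specific binding. Filter-bound radioactivity counted; pIC50 from four-parameter logistic fit.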

[3] = target: T3, recombinant human Dopamine Subtype D2s receptors (Homo sapiens, UniProt P14416); assay: Dopamine D2 selectivity binding assay ([3H]-spiperone); details: inhibition of [3H]-spiperone binding, human D2s membranes; read-out: D2 bind pIC50 (converted)
T3 construct: purchased Perkin Elmer
T3 sequence (P14416 1-414 isoform P14416-2): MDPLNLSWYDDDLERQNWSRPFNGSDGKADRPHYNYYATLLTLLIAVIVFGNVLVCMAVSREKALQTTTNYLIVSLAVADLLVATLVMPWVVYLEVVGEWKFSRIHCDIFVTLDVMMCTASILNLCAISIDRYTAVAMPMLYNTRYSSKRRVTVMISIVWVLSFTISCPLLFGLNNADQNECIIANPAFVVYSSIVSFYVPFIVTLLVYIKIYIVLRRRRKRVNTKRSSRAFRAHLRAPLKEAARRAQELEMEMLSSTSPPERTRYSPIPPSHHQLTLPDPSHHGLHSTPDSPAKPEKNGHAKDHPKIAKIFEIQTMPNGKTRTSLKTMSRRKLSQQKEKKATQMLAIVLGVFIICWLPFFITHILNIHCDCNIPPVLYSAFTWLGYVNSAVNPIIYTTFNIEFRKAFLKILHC
How it was run: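 Competition against 0.16 nM [3H]-spiperone on membranes with recombinant human D2s receptors in HEPES buffer pH 7.4 with NaCl and gelatin, 2 h at room temperature. Filtration and scintillation counting, non-specific binding from 10 μM haloperidol. pIC50 derived from a four-parameter logistic fit.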

Row | SMILES | IC50 [1] | IC50 [2] | IC50 [3]
1 | CCCC[C@@H](C)N(CCNCCc1ccc(O)c2c1OCC(=O)N2)C(=O)CCOCCc1cccc(-c2cnn(C)c2)c1 [Example 30, (R)—N-(Hexan-2-yl)-N-(2-(2-(5-hydroxy-3-oxo-3,4-dihydro-2H-benzo[b][1,4]oxazin-8-yl)ethylamino)ethyl)-3-(3-(1-methyl-1H-pyrazol-4-yl)phenethoxy)propanamide Trifluoroacetic Acid Salt] | 1000 nM | 3980 nM | 2510 nM
2 | Cn1cc(-c2cccc(CCOCCC(=O)N(CCNCCc3ccc(O)c4c3OCC(=O)N4)C3CCCCCC3)c2)cn1 [Example 31, N-Cycloheptyl-N-(2-(2-(5-hydroxy-3-oxo-3,4-dihydro-2H-benzo[b][1,4]oxazin-8-yl)ethylamino)ethyl)-3-(3-(1-methyl-1H-pyrazol-4-yl)phenethoxy)propanamide Trifluoroacetic Acid Salt] | 398 nM | 5010 nM | 3980 nM
3 | Cc1nc(-c2cccc(CCOCCC(=O)N(CCNCCc3ccc(O)c4c3OCC(=O)N4)C3CCCCC3)c2)[nH]c1C [Example 32, N-Cyclohexyl-3-(3-(4,5-dimethyl-1H-imidazol-2-yl)phenethoxy)-N-(2-(2-(5-hydroxy-3-oxo-3,4-dihydro-2H-benzo[b][1,4]oxazin-8-yl)ethylamino)ethyl)propanamide] | 631 nM | 5010 nM | 631 nM
4 | Cn1ccnc1-c1cccc(CCOCCC(=O)N(CCNCCc2ccc(O)c3c2OCC(=O)N3)C2CCCCC2)c1 [Example 33, N-Cyclohexyl-N-(2-(2-(5-hydroxy-3-oxo-3,4-dihydro-2H-benzo[b][1,4]oxazin-8-yl)ethylamino)ethyl)-3-(3-(1-methyl-1H-imidazol-2-yl)phenethoxy)propanamide] | 2000 nM | > 10000 nM | 3160 nM
5 | Cc1nc(-c2cccc(CCOCCC(=O)N(CCNCCc3ccc(O)c4c3OCC(=O)N4)C3CCCCC3)c2)cn1C [Example 35, N-Cyclohexyl-3-(3-(1,2-dimethyl-1H-imidazol-4-yl)phenethoxy)-N-(2-(2-(5-hydroxy-3-oxo-3,4-dihydro-2H-benzo[b][1,4]oxazin-8-yl)ethylamino)ethyl)propanamide Trifluoroacetic Acid Salt] | 2000 nM | > 10000 nM | 3160 nM
6 | COCCn1cc(-c2cccc(CCOCCC(=O)N(CCNCCc3ccc(O)c4c3OCC(=O)N4)C3CCCCC3)c2)cn1 [Example 36, N-Cyclohexyl-N-(2-(2-(5-hydroxy-3-oxo-3,4-dihydro-2H-benzo[b][1,4]oxazin-8-yl)ethylamino)ethyl)-3-(3-(1-(2-methoxyethyl)-1H-pyrazol-4-yl)phenethoxy)propanamide Trifluoroacetic Acid Salt] | 2510 nM | > 10000 nM | > 7940 nM
7 | Cc1c(-c2cccc(CCOCCC(=O)N(CCNCCc3ccc(O)c4c3OCC(=O)N4)C3CCCCC3)c2)cnn1C [Example 37, N-Cyclohexyl-3-(3-(1,5-dimethyl-1H-pyrazol-4-yl)phenethoxy)-N-(2-(2-(5-hydroxy-3-oxo-3,4-dihydro-2H-benzo[b][1,4]oxazin-8-yl)ethylamino)ethyl)propanamide Trifluoroacetic Acid Salt] | 1000 nM | > 10000 nM | 1580 nM
